According to patent US20020102688A1, “Methods and products for the synthesis of oligosaccharide structures on glycoproteins, glycolipids, or as free molecules, and for the isolation of cloned genetic sequences that determine these structures” (The Regents of the University of Michigan, priority 1990, published 2002):

Biological target: T1, Fuc-TIII (Homo sapiens, UniProt P21217)
T1 construct: showing that this insert is essentially full-length; expressed in transfected cells; host or cells: COS-1 cells (monkey kidney), transient DEAE-dextran transfection, 1% Triton X-100 extract
T1 sequence (P21217 1-361): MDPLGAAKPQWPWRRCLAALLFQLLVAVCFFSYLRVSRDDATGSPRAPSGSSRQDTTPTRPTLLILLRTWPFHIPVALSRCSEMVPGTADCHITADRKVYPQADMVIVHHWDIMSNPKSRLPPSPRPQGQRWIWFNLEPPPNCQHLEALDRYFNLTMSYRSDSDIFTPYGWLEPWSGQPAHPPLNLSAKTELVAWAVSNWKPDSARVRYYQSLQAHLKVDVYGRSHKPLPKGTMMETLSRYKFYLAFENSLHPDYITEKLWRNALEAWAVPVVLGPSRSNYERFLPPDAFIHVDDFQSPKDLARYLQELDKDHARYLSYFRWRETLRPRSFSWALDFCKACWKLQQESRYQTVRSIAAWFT
Test: Fucosyltransferase assay, extracts of COS-1 cells expressing the Lewis fucosyltransferase
Type: biochemical
Conditions: for fucose transfer to acceptor: extracts containing the Lewis blood group fucosyltransferase, same conditions as Fuc-TIV; for Relative Activity (%) with Fuc-TIII: relative product formation rate, N-acetyllactosamine = 100, acceptor 20 mM (2-fucosyllactose 5 mM), GDP-[14C]fucose 3 μM, transfected COS-1 cell extract
Experimental: Fucosyltransferase assays were performed in 50 mM MOPS pH 6.5, 25 MM MnCl2 10 MM L-fucose, 5 mM ATP, […] GDP-[^14C]fucose (specific activity of 600,000 cpm/nmol; 35,000 cpm per assay), 2.5 mM acceptor (e.g. 2′-fucosyllactose, N-acetyllactosamine, lactose or lacto-N-biose I), and up to 10 μl of cell extract, in a final volume of 20 μl. When determining α(1,3)FT specific activities achieved during the sib selection process, and in the analysis of the protein A-fucosyltransferase fusion protein experiments, the amount of added cell extract and incubation times were adjusted to yield (linear) reaction rates reflecting accurate specific activities. Reactions were incubated at 37° C. for 2 or 6 hours, and then terminated by the addition of 20 μl of ethanol, followed by dilution with 500 μl of H2O. The terminated, diluted reactions were then centrifuged at 15,000×g for 5 min. Fifty μl of each reaction supernatant was counted to determine total radioactivity, and 200 μl of each was fractionated by Dowex-1 chromatography. The neutral radiolabelled material eluting from the column was then counted directly as a measure of product formation. Enzyme specific activity is defined as pmol of fucose transferred from GDP-fucose to acceptor per mg cell extract protein per hour. Neutral products were also further analyzed as described below by descending paper chromatography and by HPLC to confirm their identity. Parallel reactions were done in the absence of added acceptor to allow correction for transfer to endogenous acceptor molecules and for substrate and product hydrolysis.
Cell extracts containing 1% Triton X-100 were prepared from transfected COS-1 cells. Fucosyltransferase assays were performed in a total volume of 20 μl, and contained 50 mM sodium cacodylate, pH 6.2, 5 mM ATP, 10 mM fucose, 20 mM MnCl2, 3 μM GDP-^14C-fucose, and 5 μl (30 μg protein) of cell extract. Acceptor substrates were added to a final concentration of 20 mM. Reactions were incubated at 37° C. for 1 hour and terminated by addition of 20 μl ethanol, followed by addition of 600 μl of distilled water. An aliquot of each reaction (50 μl) was subjected to scintillation counting to determine total radioactivity in the reaction. Another aliquot (200 μl) was applied to a column containing 400 μl of Dowex IX2-400, formate form. The flow through fraction, and […] of a subsequent water elution, were collected and pooled, and an aliquot was subjected to scintillation counting to quantitate incorporation of radioactive fucose into neutral product. Descending paper chromatography was used to confirm the structure of the product formed with the acceptor N-acetyllactosamine. The neutral product in the Dowex column eluate was concentrated by lyophilization, resuspended in a small volume of water, and fractionated through Whatman No. 40 in phenol/isopropanol/formic acid/water (85:5:10:100, lower layer). After chromatography (40 hours), the air-dried chromatogram was cut into 1 cm strips and the strips eluted into 2 ml of water. Radioactivity in each eluate was determined by scintillation counting after mixing with 10 ml of scintillation cocktail.
Table 2 presents the relative product formation rates obtained with low molecular weight acceptor substrates using cell extracts containing recombinant human α(1,3)fucosyltransferases expressed in transfected COS-1 cells, as described in the preceding sections. Fucosyltransferase assays were performed as described in detail in Lowe et al, J. Biol. Chem., (1991), 266:17467-17477; Weston et al, J. Biol. Chem. (1992), 267:4152-4160; and Kukowska-Latallo et al, Genes. Devel., (1990), 4:1288-1303. For each enzyme, the same extract was used, with saturating amounts of each acceptor oligosaccharide (20 mM, except for 2′-fucosylactose which was used at 5 mM), and GDP-^14C]fucose was present at 3 μM. Reaction times and enzyme amounts were adjusted to ensure a linear rate of product formation (less than 15% of the GDP-fucose substrate consumed). […]

Row | Compound | fucose transfer to acceptor [pmol/mg/h] | Relative Activity (%) with Fuc-TIII [%]
1 | CC(=O)N[C@H]1C(O)O[C@H](CO)[C@@H](O[C@@H]2O[C@H](CO)[C@H](O)[C@H](O)[C@H]2O)[C@@H]1O (stereo partly shown) [N-acetyllactosamine] | 526 | 100
2 | CC(=O)N[C@@H]1[C@@H](O[C@@H]2O[C@H](CO)[C@H](O)[C@H](O)[C@H]2O)[C@H](O)[C@@H](CO)O[C@@H]1O [lacto-N-biose I] | – | 420
3 | OC[C@H]1O[C@@H](O[C@H]2[C@H](O)[C@@H](O)C(O)O[C@@H]2CO)[C@H](O)[C@@H](O)[C@H]1O (stereo partly shown) [lactose] | – | 145
4 | CC(=O)NC1C(O)OC(CO)C(OC2OC(CO)C(O)C(OC3(C(=O)O)CC(O)C(NC(C)=O)C(C(O)C(O)CO)O3)C2O)C1O (stereo not drawn) [α(2,3)sialyllactosamine, NeuAcα(2→3)Galβ(1→4)GlcNAc] | 297 | 56
5 | Fucα(1,2)Galβ(1,4)Glc [2-fucosyllactose] | – | 254
